From article PMC6662706, “Short amylin receptor antagonist peptides improve memory deficits in Alzheimer’s disease mouse model” (Scientific Reports, 2019)
No end group written: not given here.

What was measured:
hippocampal LTP (CA1) = assay: Hippocampal long-term potentiation (LTP) in slices from wild type mice; set-up: species or system mouse
Experimental: We examined whether the peptide fragments were capable of influencing Aβ- or hAmylin-induced reduction of hippocampal LTP in mice. Exposure of hippocampal slices from wild-type mice to hAmylin (50 nM) or Aβ (50 nM) depressed LTP induced by a weak tetanization protocol at the CA1 region as previously reported[20],[30]. To determine whether peptides affected hAmylin or Aβ- induced depression of LTP, we applied 250 nM R5 or R14 continuously for 5 min prior to exposure of the hippocampal slices to 50 nM hAmylin or Aβ and the subsequent LTP induction. […] We therefore sought to determine whether peptide fragments were also capable of improving LTP levels in the same TgCRND8 AD mouse model. […] Importantly, doses of the short peptide fragments used in these experiments were equimolar to those used for AC253 and pramlintide in our previous studies[20],[30].
For electrophysiology experiment, hippocampal slices (400-μm thick) were prepared using a vibratome from wild type and TgCRND8 mice (8 month of age, male or female). For long-term potentiation (LTP) measurement, the stimulus strength was set to elicit 40–50% of the maximum fEPSP (field excitatory postsynaptic potential) amplitude and test pulses were delivered once every 30s. LTP was induced by 3-theta-burst stimulation protocol (each burst consisted of four pulses at 100 Hz with a 200-ms interburst interval). All drugs and chemicals were applied directly to the slice via bath perfusion.
Brains were quickly removed from mice following decapitation, placed in a cold artificial cerebral spinal fluid (aCSF) on a vibratome chamber, and transverse sections cut through the hippocampus. The aCSF contained (in millimolar 124 NaCl, 3 KCl, 2.4 CaCl2, 2 MgCl2, 1.25 NaH2PO4, 26 NaHCO3, and 10 D-glucose and was equilibrated with 95 % O2 and 5 % CO2. Hippocampal slices (400-μm thick) were maintained in aCSF-filled holding chamber at room temperature for at least 1 h and individually transferred to the submerged glass bottom recording chamber, which was constantly perfused with aCSF (2 ml/min) at 30 °C. Field excitatory postsynaptic potential (fEPSP) was recorded with a metallic (Pt/Ir) electrode (FHC, Bowdoin, ME) from the stratum radiatum layer of Cornu ammonis 1 region of the hippocampus (CA1) area, and the Schaffer collateral afferents were stimulated with 100-μs test pulses via a bipolar cluster electrode (FHC). For long-term potentiation (LTP) experiments, the stimulus strength was set to elicit 40–50 % of the maximum fEPSP amplitude and test pulses were delivered to Schaffer collaterals once every 30 s. […] Before 3-TBS or drug application, the responses were monitored for at least 10 min to ensure a stable baseline of fEPSP. […]

[1] = tested on: ERK1/2 signaling pathway downstream of AMY3 receptor; assay: hAmylin-evoked phosphoERK1/2 in HEK-AMY3 cells; type: cell-based; conditions: peptides 10 μM, hAmylin 1 μM, n = 3
Text: Human amylin is a potent agonist at amylin receptor stimulating cAMP production in cells. In the first in vitro bioassay, we examined ability of R5 and R14 to block the hAmylin-evoked cAMP generation in HEK-AMY3 cells. R11 peptide served as a negative control. […] In a second in vitro assay, we examined whether peptides R5, and R14 could protect human fetal neurons (HFNs) and N2a (mouse neuroblastoma cell line) from Αβ1–42 induced cytotoxicity.
A shorter peptide library was derived from AC253 peptide sequence comprising 12–14 amino acid peptides. […] To determine the activity of these shorter peptides to block AMY3 receptor signaling, cellular cAMP levels (measured using a parameter cyclic AMP assay kit, R&D Systems) and phosphorylation ERK1/2 (Western blot) were measured. We assessed neuroprotective properties of the peptide fragments against Aβ cytotoxicity in vitro using the MTT assay in N2a cell line and human fetal neurons (HFNs), which were prepared from 12- to 15-gestational week fetuses with approval of the Human Ethics Research Board at the University of Alberta as previously reported[17],[19].
Intracellular signaling profiles were determined using in-cell Western blot techniques as previously described ^8. […]

[2] = In vitro proteolytic stability in human serum; type: in vitro ADME; conditions: 37°C, intact peptide at different time points estimated by RP-HPLC
Experimental: Subsequently, we investigated the proteolytic stability of R5, and R14 compared to AC253. […] By assessing the main degradation fragments for both peptides using MALDI-TOF, we found both peptides to be cleaved at the basic arginine amino acids.
Supplementary Figure S2: The comparison of bio-distribution for the fragments and their parent peptide. (A) Ex vivo fluorescence showing bio-distribution images for Cy5.5-R5, R14, AC253 in different organs at after a 2 h of a single ip injection of the peptides (0.1 mmol in 200µl saline). (B) Quantification of peptides fluorescence in each organ (n=3). (C) In vitro stability of R5, R14, and AC253 peptides in human serum compared with AC253 at 37°C. The amount of intact peptide in human serum at different time points was estimated using RP-HPLC.

Row | Substance | effect of peptide alone on hippocampal LTP (hippocampal LTP (CA1); wild type mouse slices, 250 nM) | effect on Aβ-induced depression of hippocampal LTP (hippocampal LTP (CA1); wild-type mouse slices, peptide 250 nM for 5 min before Aβ1–42 50 nM, n = 6 recordings) | effect on hAmylin-induced depression of hippocampal LTP (hippocampal LTP (CA1); wild-type mouse slices, peptide 250 nM for 5 min before hAmylin 50 nM, n = 6 recordings) | effect on increases in phosphoERK1/2 evoked by hAmylin [1] | half-life [2] [min]
1 | SQELHRLQTYPR-NH2 [R5] | did not impair LTP | reversed | reversed | reduce increases in phosphoERK1/2 | 60
2 | LGRLSQELHRLQTYPRTNTGSNTY-NH2 (C-terminus assumed) [AC253, reference compound] | – | – | – | reduce increases in phosphoERK1/2 | –
